Measured values published in patent US7462601B2, “Ameliorant for chemical treatment of cancer” (priority 2002, dated 2008).

What was measured:
Assay type in all cases: in vivo, BDF mice
P388 leukemia cells [1] = assay: Enhancing carcinostatic action in cancer chemotherapy (3): ADM and TMG, survival of P388 leukemia mice; conditions: ADM 16 mg/kg i.p. 1st, 3rd, 5th, 7th days, TMG 0, 7 days after administration
Method: P388 leukemia cells (6×10^6 cells) were administered intraperitoneally to female BDF mice of 8-9 weeks old (8 heads per group, body weight of 20-22 g). On the following day (1st day), 16 mg/kg of adriamycin (ADM) and a prescribed amount TMG were intraperitoneally administered to the mice. Thereafter, ADM (16 mg/kg) was administered on the 3rd, 5th, and 7th days and TMG (prescribed amount as mentioned above) was simultaneously administered every day on the 2nd-7th days. The survival ratio of these mice was measured 7 days after the administration of ADM and TMG.

[2] = Repressing side effects (4): decrease of body weight under ADM in P388 leukemia mice; conditions: Control Group: ADM 16 mg/kg once daily for 9 days
Method: P388 leukemia cells (6×10^6 cells) were administered intraperitoneally to female BDF mice of 8-9 weeks old (8 heads per group, body weight of 20-22 g). On the following day, ADM was administered in a dosage of 16 mg/kg once daily for 9 days. The mice formed Control Group. A group of mice to which TMG was administered simultaneously with ADM in a dosage of 0.1 mg/kg once daily for 9 days formed Test Group.
The time-course changes of the body weight of the Control Group and Test Group were measured.

P388 leukemia cells [3] = assay: Enhancing carcinostatic action in cancer chemotherapy (1): CDDP and TMG, survival of P388 leukemia mice; conditions: 5th, TMG 0, 60 days; for Number surviving: 8 per group
Method: P388 leukemia cells (6×10^6 cells) were administered intraperitoneally to female BDF mice of 8-9 weeks old (8 heads per group, body weight of 20-22 g). On the following day, a solution having prescribed amounts of cisplatin (CDDP) and TMG in 0.2 ml of physiological saline was intraperitoneally administered to the mice. The survival ratio of these mice was measured 60 days after the administration of CDDP and TMG.

[4] = Repressing side effects (1): survival after lethal dose of CDDP
Method: CDDP was intraperitoneally administered in a dosage of 16 mg/kg, a lethal dose, to 10 BDF mice of 8 weeks old (22-25 g). These mice formed Control Group. A group of mice to which CDDP was administered simultaneously with TMG in a dosage of 0.01 mg/kg formed Test Group 1 and a group of mice to which CDDP was administered simultaneously with TMG in a dosage of 1.0 mg/kg formed Test Group 2. The time course changes of survival ratio of the Control Group and Test Groups were measured.

[5] = Repressing side effects (2): number of leukocytes in blood under CDDP; conditions: Control Group: CDDP 2 mg/kg i.p. once daily for 10 days
Method: CDDP was intraperitoneally administered in a dosage of 2 mg/kg to 5 BDF mice of 8 weeks old once daily for 10 days. These mice formed Control Group. A group of mice to which CDDP was administered simultaneously with TMG in a dosage of 1 mg/kg once daily for 10 days formed Test Group. The time course changes of the numbers of leukocytes in blood of the Control Group and Test Group were measured.

P388 leukemia cells [6] = assay: Enhancing carcinostatic action in cancer chemotherapy (2): CPA and TMG, survival of P388 leukemia mice; conditions: CPA alone administered, 360 mg/kg i.p. 1st, 3rd, 5th, 7th days, 60 days
Method: P388 leukemia cells (6×10^6 cells) were administered intraperitoneally to female BDF mice of 8-9 weeks old (8 heads per group, body weight of 20-22 g). On the following day (1st day), cyclophosphamide (CPA) and TMG were administered at respective dose of 360 mg/kg and 0.01 mg/kg were intraperitoneally administered to the mice. Thereafter, CPA (360 mg/kg) was administered on the 3rd, 5th, and 7th days and TMG (0.01 mg/kg) was administered every day from the 2nd through 9th days. The survival ratio of these mice was measured 60 days after the administration of CPA and TMG.

[7] = CDDP 2 mg/kg i.p. 1st, 3rd, 7th days
[8] = CDDP 4 mg/kg i.p. 1st, 9th days

**Q.** Which results are given for `COc1cccc2c1C(=O)c1c(O)c3c(c(O)c1C2=O)C[C@@](O)(C(=O)CO)C[C@@H]3O[C@H]1C[C@H](N)[C@H](O)[C@H](C)O1` [ADM, adriamycin]?
**A.** Survival ratio (P388 leukemia cells [1]): 0%; Number surviving (P388 leukemia cells [1]; 8 per group): 0 Heads; Decrease of body weight ([2]; P388 mice, day 1 after start of the test): 1.5 g; Decrease of body weight ([2]; day 3): 3.3 g; Decrease of body weight ([2]; day 5): 5.7 g; Decrease of body weight ([2]; day 7): 6.5 g

**Q.** With `[NH2][Pt]([NH2])([Cl])[Cl]` [CDDP, cisplatin] as the compound, how does the Survival ratio (P388 leukemia cells [3]; [7]) read?
**A.** Its Survival ratio is 75%.

**Q.** And the Number surviving (P388 leukemia cells [3]; [7])?
**A.** The Number surviving was 6 Heads.

**Q.** What about the Survival ratio (P388 leukemia cells [3]; [8]) of the same compound?
**A.** The Survival ratio was 75%.

**Q.** What about the Number surviving (P388 leukemia cells [3]; [8]) of the same compound?
**A.** The Number surviving was 6 Heads.

**Q.** What about the Survival ratio ([4]; Control Group: CDDP 16 mg/kg i.p. (lethal dose) alone, day 0 after administration of CDDP) of the same compound?
**A.** The Survival ratio was 100%.

**Q.** What about the Survival ratio ([4]; Control Group: CDDP 16 mg/kg i.p. alone, day 5) of the same compound?
**A.** Its Survival ratio is 80%.

**Q.** And the Survival ratio ([4]; Control Group: CDDP 16 mg/kg i.p. alone, day 8)?
**A.** Its Survival ratio is 30%.

**Q.** And the Survival ratio ([4]; Control Group: CDDP 16 mg/kg i.p. alone, day 10)?
**A.** The Survival ratio was 0%.

**Q.** And the Number of leukocytes ([5]; day 0 after start of test)?
**A.** Its Number of leukocytes is 20000 µL⁻¹.

**Q.** And the Number of leukocytes ([5]; day 10)?
**A.** The Number of leukocytes was 10000 µL⁻¹.

**Q.** And the Number of leukocytes ([5]; day 20)?
**A.** Its Number of leukocytes is 6000 µL⁻¹.

**Q.** And the Number of leukocytes ([5]; day 25)?
**A.** Its Number of leukocytes is 11000 µL⁻¹.

**Q.** What does the source list for `O=P1(N(CCCl)CCCl)NCCCO1` (centres unmarked) [CPA, cyclophosphamide]?
**A.** Survival ratio (P388 leukemia cells [6]): 50%; Number surviving (P388 leukemia cells [6]; 8 per group): 4 Heads
